Counter-ions that a name gives are not always drawn.
How the values were obtained:
5-HT1A = target: T1, 5-HT1A (Homo sapiens, UniProt P08908); experiment: gpcrMAX PathHunter β-arrestin recruitment, agonist mode; assay type: cell-based; conditions: 10 μM; >30% activity = agonist
T1 construct: ProLink enzyme-donor fragment of β-galactosidase (own knowledge of the PathHunter design)
Protocol: (§1) PathHunter cell lines were expanded from freezer stocks according to standard procedures and cells were seeded in a total volume of 20 μL into white-walled, 384-well microplates in duplicate and incubated at 37°C prior to testing. […] Intermediate dilution (1% vehicle concentration) of sample stocks was performed to generate a 5× sample in assay buffer, of which 5 μL was added to the cells and incubated for 90 or 180 min at 37°C or room temperature, depending on the specific receptor, as established by manufacturer optimization protocols (see Supplementary Table 1). For antagonist activity, cells were preincubated with an antagonist for 30 min, followed by an agonist challenge at 80% of the maximal effective concentration (EC80). Intermediate dilution of sample stocks was performed to generate 5× sample in assay buffer, of which 5 μL was added to cells and incubated at 37°C or room temperature for 30 min. This was followed by an addition of 5 μL of 6× EC80 agonist in assay buffer to the cells, which were incubated at 37°C or room temperature for 90 or 180 min. Assay signal for agonist and antagonist modes was generated through a single addition of 12.5 or 15 μL (50% v/v) of PathHunter Detection reagent cocktail, followed by a 1-h incubation at room temperature. Further experimental details can be found in the Supplementary File. Microplates were read with a PerkinElmer EnVision (Shelton, CT) instrument for chemiluminescent signal detection.
(§2) Measurement of agonist and antagonist activity in the assay was calculated as percent activity of relative luminescence units (from positive control). Significance of agonist/antagonist activity was determined based upon prespecified criteria provided by Eurofins DiscoverX. In brief, receptor activity >30% was considered a significant agonist effect. Receptor inhibition >50% was considered a significant inhibitory effect. Please refer to the Supplementary File for more detail.
(§3) Samples were added to cells and incubated for 90 or 180 minutes at 37 °C or room temperature, depending on the specific receptor, as noted, with specific incubation protocols outlined in Supplemental Table 1. For antagonist activity, preincubation temperatures were performed at the temperatures specified in Supplemental Table 1, per target. Incubation with 6× EC80 agonist was determined by the assay manufacturer and selected in order to provide a challenge that was low enough to be below the saturation point, so as to not bias the results, while still at a high enough challenge concentration to yield a robust signal-to-noise ratio. Further information is available from Eurofins Discovery Services upon request.

5-HT1B [1] = target: T2, 5-HT1B (Homo sapiens, UniProt P28222); experiment: as above; assay type: cell-based; conditions: 10 μM; >30% activity = agonist
T2 construct: host or cells: Chem-1 cells
T2 sequence (P28222 whole entry): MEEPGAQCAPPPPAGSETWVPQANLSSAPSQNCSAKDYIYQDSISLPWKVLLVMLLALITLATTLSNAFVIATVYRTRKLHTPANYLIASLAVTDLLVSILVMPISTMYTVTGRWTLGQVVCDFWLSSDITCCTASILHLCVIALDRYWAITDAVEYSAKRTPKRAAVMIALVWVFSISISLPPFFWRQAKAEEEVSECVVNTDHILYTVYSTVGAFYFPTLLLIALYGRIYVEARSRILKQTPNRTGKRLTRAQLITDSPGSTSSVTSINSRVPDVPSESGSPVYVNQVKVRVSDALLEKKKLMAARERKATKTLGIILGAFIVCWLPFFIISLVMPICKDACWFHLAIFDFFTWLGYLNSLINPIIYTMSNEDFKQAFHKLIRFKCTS
Protocol: as §1, §2, §3

5-HT2C = target: T3, 5-HT2C (Homo sapiens, UniProt P28335); experiment: as above; assay type: cell-based; conditions: 10 μM; >30% activity = agonist
T3 construct: ProLink enzyme-donor fragment of β-galactosidase (own knowledge of the PathHunter design)
T3 sequence (P28335 33-458): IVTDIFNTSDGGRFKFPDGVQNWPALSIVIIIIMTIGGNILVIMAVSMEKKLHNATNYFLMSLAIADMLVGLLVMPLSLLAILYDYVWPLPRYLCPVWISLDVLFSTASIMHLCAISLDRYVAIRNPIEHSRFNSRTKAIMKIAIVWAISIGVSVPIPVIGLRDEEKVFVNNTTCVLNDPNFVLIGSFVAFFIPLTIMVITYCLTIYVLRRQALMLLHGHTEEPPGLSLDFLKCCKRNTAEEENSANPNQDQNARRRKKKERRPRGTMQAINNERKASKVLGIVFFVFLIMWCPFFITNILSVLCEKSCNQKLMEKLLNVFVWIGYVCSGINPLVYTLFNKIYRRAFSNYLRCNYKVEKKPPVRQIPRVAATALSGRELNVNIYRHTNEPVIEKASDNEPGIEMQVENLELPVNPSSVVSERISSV
Protocol: as §1, §2, §3

5-HT5A = target: T4, 5-HT5A (Homo sapiens, UniProt P47898); experiment: as above; assay type: cell-based; conditions: 10 μM; >30% activity = agonist
T4 construct: ProLink enzyme-donor fragment of β-galactosidase (own knowledge of the PathHunter design)
T4 sequence (P47898 whole entry, the tested form may be a part): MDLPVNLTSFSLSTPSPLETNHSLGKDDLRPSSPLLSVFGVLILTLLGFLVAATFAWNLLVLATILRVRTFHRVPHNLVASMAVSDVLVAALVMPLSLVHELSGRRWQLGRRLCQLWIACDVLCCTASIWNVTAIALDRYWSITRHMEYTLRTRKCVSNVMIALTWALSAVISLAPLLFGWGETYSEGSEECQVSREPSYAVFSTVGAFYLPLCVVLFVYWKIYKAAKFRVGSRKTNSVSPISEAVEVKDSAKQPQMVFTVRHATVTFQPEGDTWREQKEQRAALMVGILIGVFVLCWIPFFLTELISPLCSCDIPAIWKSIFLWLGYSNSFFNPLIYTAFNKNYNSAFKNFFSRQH
Protocol: as §1, §2, §3

D2L = target: T5, D2L (Homo sapiens, UniProt P14416); experiment: as above; assay type: cell-based; conditions: 10 μM; >30% activity = agonist
T5 construct: ProLink enzyme-donor fragment of β-galactosidase (own knowledge of the PathHunter design)
Protocol: as §1, §2, §3

D2S = target: T6, D2S (Homo sapiens, UniProt P14416); experiment: as above; assay type: cell-based; conditions: 10 μM; >30% activity = agonist
T6 construct: ProLink enzyme-donor fragment of β-galactosidase (own knowledge of the PathHunter design)
Protocol: as §1, §2, §3

D5 [2] = target: T7, D5 (Homo sapiens, UniProt P21918); experiment: as above; assay type: cell-based; conditions: 10 μM; >30% activity = agonist
T7 construct: ProLink enzyme-donor fragment of β-galactosidase (own knowledge of the PathHunter design)
T7 sequence (P21918 whole entry, the tested form may be a part): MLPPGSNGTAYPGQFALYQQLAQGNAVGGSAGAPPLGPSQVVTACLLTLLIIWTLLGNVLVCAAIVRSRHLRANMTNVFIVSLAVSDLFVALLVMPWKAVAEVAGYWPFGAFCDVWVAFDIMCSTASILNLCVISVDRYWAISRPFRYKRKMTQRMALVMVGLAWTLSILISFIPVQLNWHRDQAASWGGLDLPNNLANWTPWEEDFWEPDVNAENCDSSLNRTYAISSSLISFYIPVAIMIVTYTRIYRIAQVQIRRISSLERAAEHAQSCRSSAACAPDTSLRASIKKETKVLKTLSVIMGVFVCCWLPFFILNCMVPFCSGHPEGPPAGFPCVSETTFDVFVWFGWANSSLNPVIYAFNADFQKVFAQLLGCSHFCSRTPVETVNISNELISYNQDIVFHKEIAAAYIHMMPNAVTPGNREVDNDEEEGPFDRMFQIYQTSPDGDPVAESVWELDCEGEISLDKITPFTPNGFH
Protocol: as §1, §2, §3

5-HT1F = target: T8, 5-HT1F (Homo sapiens, UniProt P30939); experiment: gpcrMAX PathHunter β-arrestin recruitment, antagonist mode; assay type: cell-based
T8 construct: ProLink enzyme-donor fragment of β-galactosidase (own knowledge of the PathHunter design)
T8 sequence (P30939 1-366): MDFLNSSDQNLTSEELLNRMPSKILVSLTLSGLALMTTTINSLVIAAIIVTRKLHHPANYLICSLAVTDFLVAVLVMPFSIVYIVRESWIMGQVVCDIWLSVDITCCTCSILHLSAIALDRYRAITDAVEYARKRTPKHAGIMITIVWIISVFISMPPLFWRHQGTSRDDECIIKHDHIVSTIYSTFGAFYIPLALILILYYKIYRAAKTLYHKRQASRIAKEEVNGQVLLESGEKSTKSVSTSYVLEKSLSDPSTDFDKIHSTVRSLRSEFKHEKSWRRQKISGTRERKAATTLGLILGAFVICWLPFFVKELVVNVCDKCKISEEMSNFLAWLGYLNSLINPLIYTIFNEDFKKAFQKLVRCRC
Protocol: as §1, §2, §3

AMY2 (CTR-RAMP2) = target: T9, AMY2 (CTR-RAMP2) (Homo sapiens, UniProt O60895+P30988); experiment: as above; assay type: cell-based
T9 construct: ProLink enzyme-donor fragment of β-galactosidase (own knowledge of the PathHunter design)
T9 sequence (P30988 25-474): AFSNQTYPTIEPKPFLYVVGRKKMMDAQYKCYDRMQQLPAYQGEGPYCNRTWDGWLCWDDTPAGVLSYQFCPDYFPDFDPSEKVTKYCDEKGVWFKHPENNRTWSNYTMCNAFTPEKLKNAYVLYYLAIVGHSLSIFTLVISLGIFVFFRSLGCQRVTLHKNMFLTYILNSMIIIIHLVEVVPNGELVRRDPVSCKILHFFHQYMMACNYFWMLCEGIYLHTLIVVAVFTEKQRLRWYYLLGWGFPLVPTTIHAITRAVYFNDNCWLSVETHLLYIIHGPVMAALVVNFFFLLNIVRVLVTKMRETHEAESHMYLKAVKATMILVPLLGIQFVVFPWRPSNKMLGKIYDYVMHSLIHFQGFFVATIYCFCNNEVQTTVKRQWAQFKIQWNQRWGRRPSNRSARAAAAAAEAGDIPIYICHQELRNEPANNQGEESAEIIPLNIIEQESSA
T9 sequence (O60895 43-175 partner): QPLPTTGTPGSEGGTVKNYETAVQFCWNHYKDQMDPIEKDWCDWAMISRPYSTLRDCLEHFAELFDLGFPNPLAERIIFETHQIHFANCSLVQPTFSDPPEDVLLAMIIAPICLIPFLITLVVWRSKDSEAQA
Protocol: as §1, §2, §3

D1 = target: T10, D1 (Homo sapiens, UniProt P21728); experiment: as above; assay type: cell-based
T10 construct: ProLink enzyme-donor fragment of β-galactosidase (own knowledge of the PathHunter design)
T10 sequence (P21728 whole entry, the tested form may be a part): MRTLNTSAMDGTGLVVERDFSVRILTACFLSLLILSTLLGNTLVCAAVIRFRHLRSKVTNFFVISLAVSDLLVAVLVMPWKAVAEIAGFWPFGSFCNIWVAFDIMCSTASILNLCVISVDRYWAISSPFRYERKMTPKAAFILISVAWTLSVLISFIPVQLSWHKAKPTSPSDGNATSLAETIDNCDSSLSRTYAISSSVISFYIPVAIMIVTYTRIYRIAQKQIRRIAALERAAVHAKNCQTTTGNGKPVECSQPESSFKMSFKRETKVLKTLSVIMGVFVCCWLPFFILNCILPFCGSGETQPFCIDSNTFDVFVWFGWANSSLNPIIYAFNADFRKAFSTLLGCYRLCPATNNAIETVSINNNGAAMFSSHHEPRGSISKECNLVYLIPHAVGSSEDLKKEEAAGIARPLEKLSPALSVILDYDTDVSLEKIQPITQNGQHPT
Protocol: as §1, §2, §3

D3 = target: T11, D3 (Homo sapiens, UniProt P35462); experiment: as above; assay type: cell-based
T11 construct: ProLink enzyme-donor fragment of β-galactosidase (own knowledge of the PathHunter design)
T11 sequence (P35462 whole entry, the tested form may be a part): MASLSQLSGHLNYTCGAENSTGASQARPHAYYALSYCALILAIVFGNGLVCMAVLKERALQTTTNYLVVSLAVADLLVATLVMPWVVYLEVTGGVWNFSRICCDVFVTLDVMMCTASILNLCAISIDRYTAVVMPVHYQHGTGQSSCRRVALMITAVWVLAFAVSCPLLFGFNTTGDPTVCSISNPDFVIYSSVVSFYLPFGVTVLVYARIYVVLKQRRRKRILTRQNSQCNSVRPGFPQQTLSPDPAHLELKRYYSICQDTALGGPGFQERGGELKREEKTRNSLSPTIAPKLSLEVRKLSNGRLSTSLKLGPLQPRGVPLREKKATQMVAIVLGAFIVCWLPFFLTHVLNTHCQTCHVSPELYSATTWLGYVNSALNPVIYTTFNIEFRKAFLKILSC
Protocol: as §1, §2, §3

D4 = target: T12, D4 (Homo sapiens, UniProt P21917); experiment: as above; assay type: cell-based
T12 construct: ProLink enzyme-donor fragment of β-galactosidase (own knowledge of the PathHunter design)
T12 sequence (P21917 whole entry, the tested form may be a part): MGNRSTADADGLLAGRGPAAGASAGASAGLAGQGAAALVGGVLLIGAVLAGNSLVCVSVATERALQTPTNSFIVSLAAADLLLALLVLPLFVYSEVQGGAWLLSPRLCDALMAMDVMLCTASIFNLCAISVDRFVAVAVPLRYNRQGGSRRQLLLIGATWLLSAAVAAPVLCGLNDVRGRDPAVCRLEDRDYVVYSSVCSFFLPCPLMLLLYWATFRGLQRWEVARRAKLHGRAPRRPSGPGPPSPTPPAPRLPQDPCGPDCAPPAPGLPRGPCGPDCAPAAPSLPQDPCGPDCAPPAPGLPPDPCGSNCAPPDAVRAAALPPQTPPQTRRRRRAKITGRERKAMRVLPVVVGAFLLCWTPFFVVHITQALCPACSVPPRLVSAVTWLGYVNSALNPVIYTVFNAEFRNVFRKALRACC
Protocol: as §1, §2, §3

D5 [3] = target: T7, D5; experiment: as above; assay type: cell-based
Protocol: as §1, §2, §3

α-adrenergic1B = target: T13, α-adrenergic1B (Homo sapiens, UniProt P35368); experiment: as above; assay type: cell-based
T13 construct: ProLink enzyme-donor fragment of β-galactosidase (own knowledge of the PathHunter design)
T13 sequence (P35368 whole entry, the tested form may be a part): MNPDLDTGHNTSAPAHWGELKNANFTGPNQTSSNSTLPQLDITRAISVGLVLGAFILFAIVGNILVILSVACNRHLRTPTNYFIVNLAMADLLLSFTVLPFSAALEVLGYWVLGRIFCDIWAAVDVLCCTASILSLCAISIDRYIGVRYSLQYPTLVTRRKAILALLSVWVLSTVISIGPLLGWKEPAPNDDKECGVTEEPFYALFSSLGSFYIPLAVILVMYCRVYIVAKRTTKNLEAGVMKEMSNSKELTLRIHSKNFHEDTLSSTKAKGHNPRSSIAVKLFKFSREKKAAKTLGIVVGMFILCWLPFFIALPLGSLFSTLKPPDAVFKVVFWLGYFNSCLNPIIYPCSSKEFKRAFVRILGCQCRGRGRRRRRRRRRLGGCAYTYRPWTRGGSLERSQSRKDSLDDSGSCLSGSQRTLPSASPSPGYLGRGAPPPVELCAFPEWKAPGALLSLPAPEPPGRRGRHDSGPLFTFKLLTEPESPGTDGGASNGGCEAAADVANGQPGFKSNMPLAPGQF
Protocol: as §1, §2, §3

α-adrenergic2A = target: T14, α-adrenergic2A (Homo sapiens, UniProt P08913); experiment: as above; assay type: cell-based
T14 construct: ProLink enzyme-donor fragment of β-galactosidase (own knowledge of the PathHunter design)
T14 sequence (P08913 whole entry, the tested form may be a part): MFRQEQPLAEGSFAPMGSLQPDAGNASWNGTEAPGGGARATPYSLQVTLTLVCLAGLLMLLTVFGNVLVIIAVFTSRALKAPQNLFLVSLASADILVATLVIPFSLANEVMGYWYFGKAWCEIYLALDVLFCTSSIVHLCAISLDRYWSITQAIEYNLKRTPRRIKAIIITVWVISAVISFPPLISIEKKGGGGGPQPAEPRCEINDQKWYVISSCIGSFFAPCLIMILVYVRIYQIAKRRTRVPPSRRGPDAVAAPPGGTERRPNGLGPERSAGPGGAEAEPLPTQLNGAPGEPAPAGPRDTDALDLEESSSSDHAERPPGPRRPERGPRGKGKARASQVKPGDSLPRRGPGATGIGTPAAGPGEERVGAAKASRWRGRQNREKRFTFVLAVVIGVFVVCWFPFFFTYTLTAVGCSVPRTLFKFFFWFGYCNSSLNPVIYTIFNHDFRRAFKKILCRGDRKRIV
Protocol: as §1, §2, §3

α-adrenergic2C = target: T15, α-adrenergic2C (Homo sapiens, UniProt P18825); experiment: as above; assay type: cell-based
T15 construct: ProLink enzyme-donor fragment of β-galactosidase (own knowledge of the PathHunter design)
T15 sequence (P18825 whole entry, the tested form may be a part): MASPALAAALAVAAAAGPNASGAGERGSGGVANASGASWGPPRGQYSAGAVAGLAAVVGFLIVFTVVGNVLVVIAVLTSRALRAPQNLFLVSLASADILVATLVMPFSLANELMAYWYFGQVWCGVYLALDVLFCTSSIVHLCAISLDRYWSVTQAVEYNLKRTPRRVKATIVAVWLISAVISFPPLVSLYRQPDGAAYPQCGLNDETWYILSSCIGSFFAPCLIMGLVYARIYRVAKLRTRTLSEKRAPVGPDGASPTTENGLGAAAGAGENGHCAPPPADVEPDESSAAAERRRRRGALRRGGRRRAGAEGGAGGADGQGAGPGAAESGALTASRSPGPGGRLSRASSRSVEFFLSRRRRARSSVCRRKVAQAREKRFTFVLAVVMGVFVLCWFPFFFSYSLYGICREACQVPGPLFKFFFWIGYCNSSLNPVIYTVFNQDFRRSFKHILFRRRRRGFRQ
Protocol: as §1, §2, §3

5-HT1B [4] = target: T2, 5-HT1B; experiment: Radioligand competition binding, [3H]GR125743, Chem-1 cells
Protocol: All assays were performed in duplicate (ie, 2 replicates per assay, per standard manufacturer protocol).

[5] = 10 μM, >50% inhibition = antagonist
[6] = agonist control Dopamine at EC80
[7] = agonist control UK 14,304 at EC80

## CN1C[C@H](C(=O)N[C@]2(C)O[C@@]3(O)[C@@H]4CCCN4C(=O)[C@H](Cc4ccccc4)N3C2=O)C[C@@H]2c3cccc4[nH]cc(c34)C[C@H]21 [DHE, Dihydroergotamine mesylate]
5-HT1A
  DHE activity (screening): Agonist
5-HT1B [1]
  DHE activity (screening): Agonist
5-HT2C
  DHE activity (screening): Agonist
5-HT5A
  DHE activity (screening): Agonist
D2L
  DHE activity (screening): Agonist
D2S
  DHE activity (screening): Agonist
D5 [2]
  DHE activity (screening): Agonist
5-HT1F
  IC50: 149 nM
5-HT1F; [5]
  DHE activity (screening): Antagonist
5-HT1F; 10 μM, agonist control Serotonin at EC80
  inhibition at 10 µM: 92%
AMY2 (CTR-RAMP2)
  inhibition at 10 µM: 57%
AMY2 (CTR-RAMP2); [5]
  DHE activity (screening): Antagonist
D1; [5]
  DHE activity (screening): Antagonist
D1; [6]
  inhibition at 10 µM: 71%
D3; [5]
  DHE activity (screening): Antagonist
D3; [6]
  inhibition at 10 µM: 91%
D4; [5]
  DHE activity (screening): Antagonist
D4; [6]
  inhibition at 10 µM: 83%
D5 [3]; [5]
  DHE activity (screening): Antagonist
D5 [3]; [6]
  inhibition at 10 µM: 54%
α-adrenergic1B; [5]
  DHE activity (screening): Antagonist
α-adrenergic1B; agonist control Phenylephrine at EC80
  inhibition at 10 µM: 95%
α-adrenergic2A; [5]
  DHE activity (screening): Antagonist
α-adrenergic2A; [7]
  inhibition at 10 µM: 115%
α-adrenergic2C; [5]
  DHE activity (screening): Antagonist
α-adrenergic2C; [7]
  inhibition at 10 µM: 124%
5-HT1B [4]
  IC50: 0.58 nM
